In patent US6355799B1, “Substituted benzene compounds, process for their preparation, and herbicidal and defoliant compositions containing them” (ISK Americas Incorporated, priority 1997, dated 2002):

Key:
Type in all cases: in vivo
[1] = tested on: upland rice (Oryza sp., var. Tebonnet, RICE); test: Post-emerge test, crop safety; details: post-emerge, 14 days after application, rating scale 0-100
Summary of the method: (§1)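 Applied at 15–1000 g ai/ha from acetone in 187 l/ha spray volume. Post-emergence applications included 0.25% v/v non-ionic surfactant and reached plants sown 8–21 days before. Pre-emergence applications were incorporated by surface watering. Efficacy or crop damage was rated on a 0–100 scale after 14 days.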

[2] = tested on: field corn (Zea mays L., var. Dekalb 535, CORN); test: Post-emerge test, crop safety; details: post-emerge, 14 days after application, rating scale 0-100
Summary of the method: as §1

[3] = tested on: redroot pigweed (Amaranthus retroflexus, AMARE); test: Pre-emerge test, greenhouse herbicide activity screening; details: pre-emerge, 14 days after application, scale 0-100
Summary of the method: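 Compounds in acetone were track-sprayed at 187 l/ha, 15–1000 g ai/ha, onto sandy loam pots. Pre-emerge seeds were sown one day before spraying, with surface watering afterwards. Post-emerge plants were at the 2–3 leaf stage and sprayed with 0.25% v/v non-ionic surfactant. Injury was rated 0–100 at 14 days.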

[4] = tested on: upland rice (Oryza sp., var. Tebonnet, RICE); test: Pre-emerge test, crop safety; details: pre-emerge, 14 days after application, scale 0-100
Summary of the method: (§2)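 Herbicidal damage is scored 0 (none) to 100 (complete plant death) two weeks after a simulated field spray. Rates span 15–1000 g ai/ha, delivered in acetone at 187 l/ha. For post-emergence treatments, plants have 2–3 leaves and the spray carries 0.25% v/v non-ionic surfactant.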

[5] = tested on: field corn (Zea mays L., var. Dekalb 535, CORN); test: Pre-emerge test, crop safety; details: pre-emerge, 14 days after application, scale 0-100
Summary of the method: as §2

[6] = tested on: common ragweed (Ambrosia artemisizfolia L., AMBEL); test: Post-emerge test, greenhouse herbicide activity screening; details: post-emerge, 14 days after application, rating scale 0-100
Summary of the method: (§3)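 Compounds in acetone were track-sprayed at 15–1000 g ai/ha: pre-emergence onto soil sown the previous day, then top-watered to incorporate and later bottom-watered; post-emergence onto 2–3 leaf plants with 0.25% v/v surfactant, bottom-watered only. Ratings on a 0–100 phytotoxicity scale were taken at day 14.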

[7] = tested on: lambsquarters (Chenopodium album, CHEAL); test: as above; details: post-emerge, 14 days after application, rating scale 0-100
Summary of the method: as §3

[8] = tested on: ivyleaf morningglory (Ipomoea hederacea, IPOHE); test: as above; details: post-emerge, 14 days after application, rating scale 0-100
Summary of the method: as §3

[9] = tested on: redroot pigweed (Amaranthus retroflexus, AMARE); test: as above; details: post-emerge, 14 days after application, rating scale 0-100
Summary of the method: as §3

[10] = tested on: velvetleaf (Abutilon theophrasti, ABUTH); test: as above; details: post-emerge, 14 days after application, rating scale 0-100
Summary of the method: as §3

[11] = tested on: large crabgrass (Digitaria sanguinalis, DIGSA); test: as above; details: post-emerge, 14 days after application, rating scale 0-100
Summary of the method: as §3

[12] = tested on: johnsongrass (Sorghum halepense, SORHA); test: as above; details: post-emerge, 14 days after application, rating scale 0-100
Summary of the method: as §3

[13] = tested on: sicklepod (Cassia obtusifolia, CASOB); test: as above; details: post-emerge, 14 days after application, rating scale 0-100
Summary of the method: as §3

[14] = tested on: barnyardgrass (Echinochloa crus-galli, ECHCG); test: as above; details: post-emerge, 14 days after application, rating scale 0-100
Summary of the method: as §3

[15] = tested on: green foxtail (Setaria viridis, SETVI); test: as above; details: post-emerge, 14 days after application, rating scale 0-100
Summary of the method: as §3

[16] = tested on: lambsquarters (Chenopodium album, CHEAL); test: Pre-emerge test, greenhouse herbicide activity screening; details: pre-emerge, 14 days after application, scale 0-100
Summary of the method: as §1

[17] = tested on: ivyleaf morningglory (Ipomoea hederacea, IPOHE); test: as above; details: pre-emerge, 14 days after application, scale 0-100
Summary of the method: as §1

[18] = tested on: velvetleaf (Abutilon theophrasti, ABUTH); test: as above; details: pre-emerge, 14 days after application, scale 0-100
Summary of the method: as §1

[19] = tested on: large crabgrass (Digitaria sanguinalis, DIGSA); test: as above; details: pre-emerge, 14 days after application, scale 0-100
Summary of the method: as §1

[20] = tested on: johnsongrass (Sorghum halepense, SORHA); test: as above; details: pre-emerge, 14 days after application, scale 0-100
Summary of the method: as §1

[21] = tested on: sicklepod (Cassia obtusifolia, CASOB); test: as above; details: pre-emerge, 14 days after application, scale 0-100
Summary of the method: as §1

[22] = tested on: barnyardgrass (Echinochloa crus-galli, ECHCG); test: as above; details: pre-emerge, 14 days after application, scale 0-100
Summary of the method: as §1

[23] = tested on: green foxtail (Setaria viridis, SETVI); test: as above; details: pre-emerge, 14 days after application, scale 0-100
Summary of the method: as §1

COc1c(Cl)cc(F)c(-n2c(=O)cc(C(F)(F)F)n(C)c2=O)c1NC(=O)c1ccc2cccc(F)c2c1 [2-161]
RICE phytotoxicity rating (crop damage) ([1]; 63 g ai/ha): 20
RICE phytotoxicity rating (crop damage) ([1]; 250 g ai/ha): 70
CORN phytotoxicity rating (crop damage) ([2]; 63 g ai/ha): 0
CORN phytotoxicity rating (crop damage) ([2]; 250 g ai/ha): 20
phytotoxicity rating AMARE ([3]; 63 g ai/ha): 100
phytotoxicity rating AMARE ([3]; 250 g ai/ha): 100
phytotoxicity rating RICE (crop damage) ([4]; 63 g ai/ha): 0
phytotoxicity rating RICE (crop damage) ([4]; 250 g ai/ha): 40
phytotoxicity rating CORN (crop damage) ([5]; 63 g ai/ha): 0
phytotoxicity rating CORN (crop damage) ([5]; 250 g ai/ha): 0
AMBEL phytotoxicity rating ([6]; 63 g ai/ha): 30
AMBEL phytotoxicity rating ([6]; 250 g ai/ha): 100
CHEAL phytotoxicity rating ([7]; 63 g ai/ha): 100
CHEAL phytotoxicity rating ([7]; 250 g ai/ha): 100
IPOHE phytotoxicity rating ([8]; 63 g ai/ha): 100
IPOHE phytotoxicity rating ([8]; 250 g ai/ha): 100
AMARE phytotoxicity rating ([9]; 63 g ai/ha): 100
AMARE phytotoxicity rating ([9]; 250 g ai/ha): 100
ABUTH phytotoxicity rating ([10]; 63 g ai/ha): 100
ABUTH phytotoxicity rating ([10]; 250 g ai/ha): 100
DIGSA phytotoxicity rating ([11]; 63 g ai/ha): 0
DIGSA phytotoxicity rating ([11]; 250 g ai/ha): 50
SORHA phytotoxicity rating ([12]; 63 g ai/ha): 0
SORHA phytotoxicity rating ([12]; 250 g ai/ha): 30
CASOB phytotoxicity rating ([13]; 63 g ai/ha): 100
CASOB phytotoxicity rating ([13]; 250 g ai/ha): 100
ECHCG phytotoxicity rating ([14]; 63 g ai/ha): 20
ECHCG phytotoxicity rating ([14]; 250 g ai/ha): 60
SETVI phytotoxicity rating ([15]; 63 g ai/ha): 0
SETVI phytotoxicity rating ([15]; 250 g ai/ha): 20
phytotoxicity rating CHEAL ([16]; 63 g ai/ha): 100
phytotoxicity rating CHEAL ([16]; 250 g ai/ha): 100
phytotoxicity rating IPOHE ([17]; 63 g ai/ha): 20
phytotoxicity rating IPOHE ([17]; 250 g ai/ha): 90
phytotoxicity rating ABUTH ([18]; 63 g ai/ha): 100
phytotoxicity rating ABUTH ([18]; 250 g ai/ha): 100
phytotoxicity rating DIGSA ([19]; 63 g ai/ha): 95
phytotoxicity rating DIGSA ([19]; 250 g ai/ha): 100
phytotoxicity rating SORHA ([20]; 63 g ai/ha): 0
phytotoxicity rating SORHA ([20]; 250 g ai/ha): 30
phytotoxicity rating CASOB ([21]; 63 g ai/ha): 0
phytotoxicity rating CASOB ([21]; 250 g ai/ha): 50
phytotoxicity rating ECHCG ([22]; 63 g ai/ha): 90
phytotoxicity rating ECHCG ([22]; 250 g ai/ha): 99
phytotoxicity rating SETVI ([23]; 63 g ai/ha): 100
phytotoxicity rating SETVI ([23]; 250 g ai/ha): 100
